Data on five molecules can be found in patent publication US11332500B2, “Heterotandem bicyclic peptide complexes” (BicycleTx Limited, priority 2019, dated 2022).

Series [1] addresses T1, CD137 (Homo sapiens, UniProt Q07011).
T1 construct: host or cells: Jurkat reporter cells from the Promega kit, co-cultured with tumour cells (NCI-H292, PC3 or RKO)
Description: CD137 reporter assay co-culture with RKO tumour cells (PD-L1/CD137 heterotandems). To be noted: Jurkat CD137 reporter cells co-cultured with RKO (PD-L1), 6 h; read-out: Fold Induction over background. It counts as cell-based. The procedure:
Culture medium, referred to as R1 media, is prepared by adding 1% FBS to RPMI-1640 (component of Promega kit CS196005). Serial dilutions of test articles in R1 are prepared in a sterile 96 well-plate. Add 25 μL per well of test articles or R1 (as a background control) to designated wells in a white cell culture plate. Tumour cells* are harvested and resuspended at a concentration of 400,000 cells/mL in R1 media. Twenty five (25) μL/well of tumour cells are added to the white cell culture plate. Jurkat cells (Promega kit CS196005, 0.5 mL) are thawed in the water bath and then added to 5 ml pre-warmed R1 media. Twenty five (25) μL/well of Jurkat cells are then added to the white cell culture plate. Incubate the cells and test articles for 6 h at 37° C., 5% CO2. At the end of 6 h, add 75 μL/well Bio-Glo™ reagent (Promega) and incubate for 10 min before reading luminescence in a plate reader (Clariostar, BMG). The fold change relative to cells alone (Jurkat cells+Cell line used in co-culture) is calculated and plotted in GraphPad Prism as log(agonist) vs response to determine EC50 (nM) and Fold Induction over background (Max).
The tumour cell type used in co-culture for EphA2 is PC3. The tumour cell type used in co-culture for PD-L1 is RKO.
A summary of the fold induction induced by PD-L1/CD137 heterotandem peptides in the CD137 reporter coculture assay with RKO cells is shown in Table 3.
Background: Reporter assays use an easily measured gene product as a stand-in for the process of interest.

Series [2] is described as follows: Pharmacokinetics of CD137 heterotandem bicyclic peptide complexes in SD rats. To be noted: rat, in vivo, male SD rats, IV Inf, plasma; for clearance: read-out: Clp; for half-life: read-out: T½ (converted); for Vd: read-out: Vdss. The procedure: Male SD Rats were dosed with 2 mg/kg of each heterotandem Bicycle peptide complex formulated in 25 mM Histidine HCl, 10% sucrose pH 7. Serial bleeding (about 80 μL blood/time point) was performed via submadibular or saphenous vein at each time point. All blood samples were immediately transferred into prechilled microcentrifuge tubes containing 2 μL K2-EDTA (0.5M) as anti-coagulant and placed on wet ice. Blood samples were immediately processed for plasma by centrifugation at approximately 4° C., 3000 g. The precipitant including internal standard was immediately added into the plasma, mixed well and centrifuged at 12,000 rpm, 4° C. for 10 minutes. The supernatant was transferred into pre-labeled polypropylene microcentrifuge tubes, and then quick-frozen over dry ice. The samples were stored at […] or below as needed until analysis. 7.5 μL of the supernatant samples were directly injected for LC-MS/MS analysis using an Orbitrap Q Exactive in positive ion mode to determine the concentrations of Bicycle. Plasma concentration versus time data were analyzed by non-compartmental approaches using the Phoenix WinNonlin 6.3 software program. C0, Cl, Vdss, T½, AUC(0-last), AUC(0-inf), MRT(0-last), MRT(0-inf) and graphs of plasma concentration versus time profile were reported.

Where two headings read alike, the source gives them in different places. *1 amine or outer side, *2 acyl side, *3 side chain or, on linkers, in order; H or OH if unused. Where a SMILES comes first, the peptide text is derived from it. Bridges are numbered along the chain shown (N, C = ends). Roman numbers before positions name the chains, in order. [ ]: non-standard residue; d: D form. TATA = O=C(CC[*:1])N1CN(C(=O)CC[*:2])CN(C(=O)CC[*:3])C1; X1 = O=C(CCc1cn(CCOCCOCCOCCOCCOCCC(=O)[*:2])nn1)[*:1]; X2 = O=C(CCOCCOCCOCCOCCOCCn1cc(CCC(=O)[*:2])nn1)[*:1]; Dip = N[C@H](C(=O)O)C(c1ccccc1)c1ccccc1; Hyp = O=C(O)[C@@H]1C[C@@H](O)CN1; hArg = N=C(N)NCCCC[C@H](N)C(=O)O; tBuAla = CC(C)(C)C[C@H](N)C(=O)O; Cba = N[C@@H](CC1CCC1)C(=O)O; Nle = CCCC[C@H](N)C(=O)O

T1 sequence (Q07011 24-255): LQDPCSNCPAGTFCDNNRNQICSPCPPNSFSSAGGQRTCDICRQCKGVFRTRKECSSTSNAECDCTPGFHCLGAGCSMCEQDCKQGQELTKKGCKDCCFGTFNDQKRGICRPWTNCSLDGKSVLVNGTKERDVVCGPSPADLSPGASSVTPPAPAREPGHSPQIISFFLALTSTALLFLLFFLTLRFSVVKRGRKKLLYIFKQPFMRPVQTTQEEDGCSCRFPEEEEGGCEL

For `CCCC[C@@H]1NC(=O)[C@H](Cc2ccc(O)cc2)NC(=O)[C@@H]2CCCN2C(=O)[C@H](CC(=O)O)NC(=O)[C@H](C)NC(=O)[C@H](Cc2ccccc2)NC(=O)[C@@H]2CSCCC(=O)N3CN(CN(C3)C(=O)CCSC[C@@H](C(=O)N[C@@H](C)C(N)=O)NC1=O)C(=O)CCSC[C@H](NC(C)=O)C(=O)N[C@@H](CC(C)(C)C)C(=O)N1CCC[C@H]1C(=O)N[C@@H](CCC(=O)O)C(=O)N[C@H](CCCCNC(=O)CCc1cn(CCOCCOCCOCCOCCOCCC(=O)NCCCC[C@@H]3NC(=O)[C@H](CCC(N)=O)NC(=O)[C@@H]4CSCCC(=O)N5CN(CN(C5)C(=O)CCSC[C@@H](C(=O)N5CCC[C@H]5C(=O)N[C@@H](CO)C(=O)N[C@@H](Cc5c[nH]cn5)C(N)=O)NC(=O)[C@H](CC(C)C)NC(=O)[C@H](Cc5c[nH]cn5)NC(=O)[C@H](CC(C)C)NC3=O)C(=O)CCSC[C@H](NC(=O)[C@H](CCCCNC(=N)N)NC(=O)[C@H](CC(=O)O)NC(C)=O)C(=O)N[C@@H](CO)C(=O)N[C@@H](C)C(=O)NCC(=O)N[C@@H](Cc3c[nH]c5ccccc35)C(=O)N[C@@H](CC(C)C)C(=O)N[C@@H]([C@@H](C)O)C(=O)N[C@@H](CCSC)C(=O)N4)nn1)C(=O)N1CCC[C@H]1C(=O)N[C@@H](Cc1ccc(O)cc1)C(=O)N2` [BCY12229] (I: Ac-D[hArg]CSAGWLTMCQKLHLCPSH-NH2 / II: Ac-C[tBuAla]PE[dK]PYCFADPY[Nle]CA-NH2; linker I:3-I:11-I:17, II:1-II:8-II:15 via TATA; linker I:13-II:5 via X2), in series [1], the fold induction came to 8.
In the case of `CCCC[C@@H]1NC(=O)[C@H](Cc2ccc(O)cc2)NC(=O)[C@@H]2CCCN2C(=O)[C@H](CC(=O)O)NC(=O)[C@H](C)NC(=O)[C@H](Cc2ccccc2)NC(=O)[C@@H]2CSCCC(=O)N3CN(CN(C3)C(=O)CCSC[C@@H](C(=O)N[C@@H](C)C(N)=O)NC1=O)C(=O)CCSC[C@H](NC(C)=O)C(=O)N[C@@H](CC(C)(C)C)C(=O)N1CCC[C@H]1C(=O)N[C@@H](CCC(=O)O)C(=O)N[C@H](CCCCNC(=O)CCc1cn(CCOCCOCCOCCOCCOCCC(=O)NCCCC[C@@H]3NC(=O)[C@H](CO)NC(=O)[C@@H](NC(=O)[C@H](CCCCNC(=N)N)NC(=O)[C@H](CC(=O)O)NC(C)=O)CSCCC(=O)N4CN5CN(C4)C(=O)CCSC[C@@H](C(=O)N4CCC[C@H]4C(=O)N[C@@H](CO)C(=O)N[C@@H](Cc4c[nH]cn4)C(N)=O)NC(=O)[C@H](CC(C)C)NC(=O)[C@H](Cc4c[nH]cn4)NC(=O)[C@H](CC(C)C)NC(=O)[C@H](CCCCNC(C)=O)NC(=O)[C@H](CCC(N)=O)NC(=O)[C@H](CSCCC5=O)NC(=O)[C@H](CCSC)NC(=O)[C@H]([C@@H](C)O)NC(=O)[C@H](CC(C)C)NC(=O)[C@H](Cc4c[nH]c5ccccc45)NC(=O)CNC3=O)nn1)C(=O)N1CCC[C@H]1C(=O)N[C@@H](Cc1ccc(O)cc1)C(=O)N2` [BCY12230] (I: Ac-D[hArg]CSKGWLTMCQK(Ac)LHLCPSH-NH2 / II: Ac-C[tBuAla]PE[dK]PYCFADPY[Nle]CA-NH2; linker I:3-I:11-I:17, II:1-II:8-II:15 via TATA; linker I:5-II:5 via X2), the fold induction in series [1] stood at 10.
For the molecule `CCCC[C@@H]1NC(=O)[C@H](Cc2ccc(O)cc2)NC(=O)[C@@H]2CCCN2C(=O)[C@H](CC(=O)O)NC(=O)[C@H](C)NC(=O)[C@H](Cc2ccccc2)NC(=O)[C@@H]2CSCCC(=O)N3CN(CN(C3)C(=O)CCSC[C@@H](C(=O)N[C@@H](C)C(N)=O)NC1=O)C(=O)CCSC[C@H](NC(C)=O)C(=O)N[C@@H](CC(C)(C)C)C(=O)N1CCC[C@H]1C(=O)N[C@@H](CCC(=O)O)C(=O)N[C@H](CCCCNC(=O)CCOCCOCCOCCOCCOCCn1cc(CCC(=O)NCCCC[C@H](NC(=O)[C@@H]3CSCCC(=O)N4CN5CN(C4)C(=O)CCSC[C@H](NC(=O)[C@H](CC(=O)O)NC(=O)[C@H](CCCCNC(=N)N)NC(=O)[C@H](C)NC(C)=O)C(=O)N4C[C@H](O)C[C@H]4C(=O)N[C@@H](CC(C)C)C(=O)N[C@@H](C(C)C)C(=O)N[C@@H](CC(N)=O)C(=O)N4CCC[C@H]4C(=O)N[C@@H](CC(C)C)C(=O)N[C@@H](CSCCC5=O)C(=O)N[C@@H](CC(C)C)C(=O)N[C@@H](Cc4c[nH]cn4)C(=O)N4CCC[C@H]4C(=O)N[C@H](CC(=O)O)C(=O)N[C@@H](Cc4c[nH]c5ccccc45)C(=O)N[C@@H](CCCCNC(=N)N)C(=O)N3)C(N)=O)nn1)C(=O)N1CCC[C@H]1C(=O)N[C@@H](Cc1ccc(O)cc1)C(=O)N2` [BCY12234] (I: Ac-A[hArg]DC[Hyp]LVNPLCLHP[dD]W[hArg]CK-NH2 / II: Ac-C[tBuAla]PE[dK]PYCFADPY[Nle]CA-NH2; linker I:4-I:11-I:18, II:1-II:8-II:15 via TATA; linker I:19-II:5 via X1), in series [2] (2.0 mg/kg), the clearance was 26 mL/min/kg, the half-life is 0.42 h and the Vd stood at 0.95 L/kg.
For `CCCC[C@@H]1NC(=O)[C@H](Cc2ccc(O)cc2)NC(=O)[C@@H]2CCCN2C(=O)[C@H](CC(=O)O)NC(=O)[C@H](C)NC(=O)[C@H](Cc2ccccc2)NC(=O)[C@@H]2CSCCC(=O)N3CN(CN(C3)C(=O)CCSC[C@@H](C(=O)N[C@@H](C)C(N)=O)NC1=O)C(=O)CCSC[C@H](NC(C)=O)C(=O)N[C@@H](CC(C)(C)C)C(=O)N1CCC[C@H]1C(=O)N[C@@H](CCC(=O)O)C(=O)N[C@H](CCCCNC(=O)CCc1cn(CCOCCOCCOCCOCCOCCC(=O)N[C@H]3CSCCC(=O)N4CN5CN(C4)C(=O)CCSC[C@H](NC(=O)[C@H](CC(C)C)NC(=O)[C@@H]4CCCN4C(=O)[C@H](CC(N)=O)NC(=O)[C@H](C(C)C)NC(=O)[C@H](CC(C)C)NC(=O)[C@@H]4C[C@@H](O)CN4C3=O)C(=O)N[C@@H](CC(C)C)C(=O)N[C@@H](C(c3ccccc3)c3ccccc3)C(=O)N3CCC[C@H]3C(=O)N[C@H](CC(=O)O)C(=O)N[C@@H](Cc3c[nH]c4ccccc34)C(=O)N[C@@H]([C@@H](C)O)C(=O)N[C@H](C(N)=O)CSCCC5=O)nn1)C(=O)N1CCC[C@H]1C(=O)N[C@@H](Cc1ccc(O)cc1)C(=O)N2` [BCY13035] (I: Ac-C[tBuAla]PE[dK]PYCFADPY[Nle]CA-NH2 / II: C[Hyp]LVNPLCL[Dip]P[dD]WTC-NH2; linker I:1-I:8-I:15, II:1-II:8-II:15 via TATA; linker I:5-II:N via X1), in series [2] (3.0 mg/kg), the clearance came to 11 mL/min/kg, the half-life was 1.5 h and the Vd amounted to 0.63 L/kg.
In the case of `CCCC[C@@H]1NC(=O)[C@H](Cc2ccc(O)cc2)NC(=O)[C@@H]2CCCN2C(=O)[C@H](CC(=O)O)NC(=O)[C@H](C)NC(=O)[C@H](Cc2ccccc2)NC(=O)[C@@H]2CSCCC(=O)N3CN(CN(C3)C(=O)CCSC[C@@H](C(=O)N[C@@H](C)C(N)=O)NC1=O)C(=O)CCSC[C@H](NC(C)=O)C(=O)N[C@@H](CC(C)(C)C)C(=O)N1CCC[C@H]1C(=O)N[C@@H](CCC(=O)O)C(=O)N[C@H](CCCCNC(=O)CCc1cn(CCOCCOCCOCCOCCOCCC(=O)N[C@H]3CSCCC(=O)N4CN5CN(C4)C(=O)CCSC[C@@H](C(=O)N[C@H](C)C(N)=O)NC(=O)[C@H]([C@@H](C)O)NC(=O)[C@H](Cc4c[nH]c6ccccc46)NC(=O)[C@@H](CC(=O)O)NC(=O)[C@@H]4CCCN4C(=O)[C@H](C(c4ccccc4)c4ccccc4)NC(=O)[C@H](CC(C)C)NC(=O)[C@H](CSCCC5=O)NC(=O)[C@H](CC(C)C)NC(=O)[C@@H]4CCCN4C(=O)[C@H](CC(N)=O)NC(=O)[C@H](C(C)C)NC(=O)[C@H](CC4CCC4)NC(=O)[C@@H]4C[C@@H](O)CN4C3=O)nn1)C(=O)N1CCC[C@H]1C(=O)N[C@@H](Cc1ccc(O)cc1)C(=O)N2` [BCY13040] (I: C[Hyp][Cba]VNPLCL[Dip]P[dD]WTC[dA]-NH2 / II: Ac-C[tBuAla]PE[dK]PYCFADPY[Nle]CA-NH2; linker I:1-I:8-I:15, II:1-II:8-II:15 via TATA; linker I:N-II:5 via X2), in series [2] (3.0 mg/kg), the clearance was found to be 10 mL/min/kg, the half-life was 1.6 h and the Vd stood at 0.63 L/kg.
